Earlier results on one compound are cited in patent US20110178470A1, “PHARMACEUTICAL COMPOSITIONS COMPRISING BORONIC ACID COMPOUNDS” (DR. REDDY'S LABORATORIES LTD., priority 2008, published 2011).

For the data set the following is noted: as the monomeric boronic acid; pH range of 2 to 6.5.

For `CC(C)C[C@H](NC(=O)[C@H](Cc1ccccc1)NC(=O)c1cnccn1)B(O)O` [bortezomib, [(1R)-3-methyl-1-[[(2S)-1-oxo-3-phenyl-2-[(pyrazinylcarbonyl)amino]propyl]amino]butyl]boronic acid], the solubility in water is reported as 3.3 to 3.8 mg/mL.
